GI50 and antitumor activity data for two compounds are collected here from patent US20240197726A1, “NOVEL TETRAHYDROISOQUINOLINE ALKALOID COMPOUND CONTAINING MACROCYCLE” (THE UNIVERSITY OF TOKYO, priority 2021, published 2024).

The structures appear in SMILES notation.

Holding throughout (assay type): cell-based
Experiment [1] relates to HBC-4 breast cancer cells. Put plainly: antitumor activity, sulforhodamine B cell growth assay, HBC-4. To be noted: HBC4; HBC-4 breast cancer cells; read-out: antitumor activity GI50 value: 50% growth inhibitory concentration. The method, boiled down: (§1)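 SRB absorbance at 525 nm after 48 h drug exposure; RPMI 1640 + 5% FBS, overnight attachment. % growth from control, test and T0 wells; log GI50/TGI/LC50 by linear interpolation between bracketing concentrations at PG 50/0/−50.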

For experiment [2], the system named is BSY-1 breast cancer cells. Put plainly: antitumor activity, sulforhodamine B cell growth assay, BSY-1. To be noted: BSY-1 breast cancer cells; read-out: antitumor activity GI50 value: 50% growth inhibitory concentration. In a few lines: as §1
Experiment [3] concerns MCF-7 breast cancer cells. Put plainly: antitumor activity, sulforhodamine B cell growth assay, MCF-7. Particulars: Homo sapiens, MCF7; MCF-7 breast cancer cells; read-out: antitumor activity GI50 value: 50% growth inhibitory concentration. The protocol:
(§2) The THIQ compound containing a macrocyclic structure of the present invention was administered to various cancer cell lines, and the antitumor activity (Go value) was observed. Specifically, verification was performed according to the literature (Yamori, T.; Matsunaga, A.; Sato, S.; Yamazaki, K.; Komi, A.; Ishizu, K. et al. Cancer Res. 1999, 59, 4042) by the following procedure.
(§3) Cells were plated at an appropriate density in a 96-well plate in RPMI 1640 together with 5% fetal bovine serum, and adhered overnight. The cells were exposed to a drug for 48 hours. Then, according to the sulforhodamine B assay described by Skehan et al (Skehan P., Storeng R., Scudiero D., Monks A., McMahon J., Vistica D., Warren J. T., Bokesch H., Kenney S., Boyd M. R. J Natl. Cancer Inst, 1990, 82, 1107-1112), the cell growth rate was measured. The absorbance of the control well (C) and the test well (T) was measured at 525 nm. In addition, the time at which the drug was added was set as time 0, and the absorbance for the test well (T0) was measured. Using these measured values, the cell growth inhibitory effect (% growth=PG) was calculated by the following formula at each concentration of the drug.
(§4) (T<T0): PG=100×[(T−T0)/T]
(§5) The PG values determined above for each cell line were plotted against the concentration (logarithm) on a semi-logarithmic graph, and summarized for each visceral cancer. Concentrations at which the dose-response curve of each cell line crossed the horizontal line of PG=50%, 0%, or −50% were calculated. These concentrations were defined as Log GI50, Log TGI, and Log LC50. Actually, using two data points of the drug concentration before and after crossing each horizontal line, the drug concentration (logarithmic value) at the intersection of the straight line connecting the two points and the horizontal line for each PG was calculated.

For experiment [4], the system named is MDA-MB-231 breast cancer cells. Put plainly: antitumor activity, sulforhodamine B cell growth assay, MDA-MB-231. Particulars: Homo sapiens; MDA-MB-231 breast cancer cells; read-out: antitumor activity GI50 value: 50% growth inhibitory concentration. The method, boiled down: as §1
The test system of experiment [5] is SF-295 central nervous system cancer cells. Put plainly: antitumor activity, sulforhodamine B cell growth assay, SF-295. To be noted: Homo sapiens; SF-295 central nervous system cancer cells; read-out: antitumor activity GI50 value: 50% growth inhibitory concentration. In a few lines: as §1
Experiment [6] deals with SNB-75 central nervous system cancer cells. As to the kind of experiment: antitumor activity, sulforhodamine B cell growth assay, SNB-75. Particulars: Homo sapiens; SNB-75 central nervous system cancer cells; read-out: antitumor activity GI50 value: 50% growth inhibitory concentration. In a few lines: as §1
In experiment [7] the test system is SNB-78 central nervous system cancer cells. As to the kind of experiment: antitumor activity, sulforhodamine B cell growth assay, SNB-78. Particulars: Homo sapiens; SNB-78 central nervous system cancer cells; read-out: antitumor activity GI50 value: 50% growth inhibitory concentration. The method, boiled down:
as §1

Experiment [8] deals with HCC2998 colorectal cancer cells. Put plainly: antitumor activity, sulforhodamine B cell growth assay, HCC2998. Particulars: Homo sapiens, HCC 2998; HCC2998 colorectal cancer cells; read-out: antitumor activity GI50 value: 50% growth inhibitory concentration. In a few lines:
as §1

The test system of experiment [9] is KM-12 colorectal cancer cells. Put plainly: antitumor activity, sulforhodamine B cell growth assay, KM-12. To be noted: Homo sapiens, KM12; KM-12 colorectal cancer cells; read-out: antitumor activity GI50 value: 50% growth inhibitory concentration. The method, boiled down: as §1
Experiment [10] concerns HCT-116 colorectal cancer cells. Put plainly: antitumor activity, sulforhodamine B cell growth assay, HCT-116. To be noted: Homo sapiens; HCT-116 colorectal cancer cells; read-out: antitumor activity GI50 value: 50% growth inhibitory concentration. The method, boiled down: as §1
Experiment [11] deals with NCI-H226 lung cancer cells. As to the kind of experiment: antitumor activity, sulforhodamine B cell growth assay, NCI-H226. To be noted: Homo sapiens, NCI-H226; NCl-H226 lung cancer cells; read-out: antitumor activity GI50 value: 50% growth inhibitory concentration. In a few lines: as §1
In experiment [12] the test system is NCI-H460 lung cancer cells. As to the kind of experiment: antitumor activity, sulforhodamine B cell growth assay, NCI-H460. To be noted: Homo sapiens, NCI-H460; NCl--H460 lung cancer cells; read-out: antitumor activity GI50 value: 50% growth inhibitory concentration. In a few lines: as §1
Experiment [13] has as its system A549 lung cancer cells. As to the kind of experiment: antitumor activity, sulforhodamine B cell growth assay, A549. To be noted: Homo sapiens; A549 lung cancer cells; read-out: antitumor activity GI50 value: 50% growth inhibitory concentration. The method, boiled down:
as §1

Experiment [14] relates to DMS114 lung cancer cells. As to the kind of experiment: antitumor activity, sulforhodamine B cell growth assay, DMS114. Particulars: Homo sapiens, DMS-114; DMS114 lung cancer cells; read-out: antitumor activity GI50 value: 50% growth inhibitory concentration. The method, boiled down:
as §1

The test system of experiment [15] is OVCAR-3 cancer cells. Put plainly: antitumor activity, sulforhodamine B cell growth assay, OVCAR-3. To be noted: Homo sapiens; OVCAR-3 cervical cancer cells; read-out: antitumor activity GI50 value: 50% growth inhibitory concentration. How it is done: as §2, §3, §4, §5
The test system of experiment [16] is OVCAR-5 cervical cancer cells. As to the kind of experiment: antitumor activity, sulforhodamine B cell growth assay, OVCAR-5. To be noted: Homo sapiens; OVCAR-5 cervical cancer cells; read-out: antitumor activity GI50 value: 50% growth inhibitory concentration. The protocol:
as §2, §3, §4, §5

In experiment [17] the test system is OVCAR-8 cancer cells. Put plainly: antitumor activity, sulforhodamine B cell growth assay, OVCAR-8. To be noted: Homo sapiens; OVCAR-8 cervical cancer cells; read-out: antitumor activity GI50 value: 50% growth inhibitory concentration. The protocol: as §2, §3, §4, §5
The subject of experiment [18] is RXF-631L kidney cancer cells. As to the kind of experiment: antitumor activity, sulforhodamine B cell growth assay, RXF-631L. To be noted: RXF-631L kidney cancer cells; read-out: antitumor activity GI50 value: 50% growth inhibitory concentration. The protocol:
as §2, §3, §4, §5

Experiment [19] has as its system St-4 gastric cancer cells. As to the kind of experiment: antitumor activity, sulforhodamine B cell growth assay, St-4. To be noted: SI-4 gastric cancer cells; read-out: antitumor activity GI50 value: 50% growth inhibitory concentration. In a few lines: as §1
For experiment [20], the system named is MKN1 gastric cancer cells. Put plainly: antitumor activity, sulforhodamine B cell growth assay, MKN1. To be noted: Homo sapiens, MKN-1; MKN1 gastric cancer cells; read-out: antitumor activity GI50 value: 50% growth inhibitory concentration. In a few lines: as §1
In experiment [21] the test system is MKN-B gastric cancer cells. Put plainly: antitumor activity, sulforhodamine B cell growth assay, MKN-B. Particulars: MKN-B gastric cancer cells; read-out: antitumor activity GI50 value: 50% growth inhibitory concentration. In a few lines: as §1
Experiment [22] has as its system various cancer cell lines. Put plainly: Verification of antitumor activity, whole panel of cancer cell lines. Particulars: in words, compared with Cyanosafracin B. How it is done:
as §2, §3, §4, §5

As for `C#CCN1C/C=C/COc2c(C)c3c(c4c2C[C@H]2[C@H]5c6c(cc(C)c(OC)c6O)C[C@@H]([C@H](C#N)N2C4CNC(=O)[C@@H]1C)N5C)OCO3` [Compound 44], the GI50 in [1], in experiment [2], in experiment [3], in experiment [4], in [5] and in experiment [6] was below 0.01 µM in each case. For the same compound, the GI50 in experiment [7], in [8], in experiment [9], in experiment [10], in experiment [11] and in [12] was below 0.01 µM each time. The GI50 in experiment [13], in experiment [14], in experiment [15], in [16], in [17] and in experiment [18] was below 0.01 µM throughout. Besides, the GI50 in [19], in [20] and in experiment [21] was below 0.01 µM throughout. For the same compound, in experiment [22], the antitumor activity result was “better antitumor activity than Cyanosafracin B”.
On to `C#CCN1C(=O)[C@H]2[C@@H]3C=C(COc4c(C)c5c(c6c4C[C@H]4[C@H]7c8c(cc(C)c(OC)c8O)C[C@@H]([C@H](C#N)N4C6CNC(=O)[C@H](C)NC(=O)OC3)N7C)OCO5)C[C@H]2C1=O` [Compound 47], for which the GI50 in experiment [1] is 0.2 µM; in experiment [2], 0.15 µM; in [3], 0.063 µM; in [4], 0.18 µM; in [5] it was 1.8 µM; in experiment [6], 0.33 µM. In addition, the GI50 in [7] was found to be 0.26 µM; in experiment [8] it was 0.41 µM; in experiment [9] it was 0.45 µM; in experiment [10] it was 0.45 µM; in experiment [11] it was 2.3 µM; in experiment [12], 0.63 µM. Also, the GI50 was 3.9 µM in [13]; 0.031 µM in experiment [14]; 0.33 µM in experiment [15]; 2.8 µM in experiment [16]; 1.1 µM in experiment [17]; 2.1 µM in experiment [18]. The GI50 in experiment [19] was found to be 2.2 µM; in [20] it was 0.29 µM; in experiment [21] it was 0.73 µM. For the same compound, the antitumor activity result in experiment [22] is on record as “better antitumor activity than Cyanosafracin B”.
